The NIST ThermoML archive (doi:10.1016/j.jct.2010.06.003)
± gives the expanded uncertainty stated by the source.

Tests used:
[1] = Molar enthalpy of transition or fusion; details: Crystal; DSC
[2] = Crystal; DTA

Compound	Molar enthalpy of transition or fusion [1]	Triple point temperature [2]
O=c1oc2ccccc2cc1O [3-hydroxycoumarin]	6.48 ± 0.146 kcal/mol	425.62 ± 0.39 K
O=c1cc(O)c2ccccc2o1 [4-hydroxycoumarin]	5.54 ± 0.141 kcal/mol	483.62 ± 0.91 K
